Source: ChEMBL document CHEMBL3826929, “Discovery and Preclinical Evaluation of BMS-711939, an Oxybenzylglycine Based PPARα Selective Agonist” (ACS Med Chem Lett, 2016)
≈ marks a conversion by molar mass, not a printed value.

Experiments:
Syrian golden hamster [1] = assay: Decrease in liver cholesterol level in high fat-diet fed syrian golden hamster model of dyslipidemia at 10 mg/kg administered qd through oral gavage measured after 21 days by FPLC analysis relative to control; format: functional, Mesocricetus auratus; set-up: scale not given: the % may be the effect or the level left
Mus musculus [2] = assay: Decrease in triglyceride level in transgenic mouse expressing human ApoA1 at 50 mg/kg administered qd through oral gavage measured after 10 days relative to vehicle control; format: functional; set-up: scale not given: the % may be the effect or the level left
[3] = target: Voltage-gated inwardly rectifying potassium channel KCNH2 (Homo sapiens, UniProt Q12809); assay: Inhibition of human ERG by flux-based assay
Syrian golden hamster [4] = assay: Decrease in plasma LDL cholesterol level in high fat-diet fed syrian golden hamster model of dyslipidemia at 1 mg/kg administered qd through oral gavage measured after 21 days by FPLC analysis relative to control; format: functional, Mesocricetus auratus; set-up: scale not given: the % may be the effect or the level left
[5] = Protein binding in human plasma; format: ADME, cell-free; settings: read-out: PPB (converted)
[6] = Cmax in dog at 2 mg/kg, po; format: ADME, organism-based, Canis lupus familiaris; set-up: dose 2 mg/kg, route oral; settings: in vivo
Syrian golden hamster [7] = assay: Decrease in liver triglyceride level in high fat-diet fed syrian golden hamster model of dyslipidemia administered qd through oral gavage measured after 21 days by FPLC analysis; format: functional, organism-based; settings: Mesocricetus auratus
[8] = Protein binding in rat plasma; format: ADME, cell-free; settings: read-out: PPB (converted)
Mus musculus [9] = assay: Increase in ApoA1 level in transgenic mouse expressing human ApoA1 at 3 mg/kg administered qd through oral gavage measured after 10 days relative to vehicle-treated control; format: functional
[10] = Agonist activity at hamster PPAR-alpha; set-up: species or system Cricetinae
Cytochrome P450 1A2 = Cytochrome P450 1A2 (Homo sapiens, UniProt P05177); assay: Inhibition of CYP1A2 (unknown origin); format: ADME
HEK293 = assay: Selectivity ratio of EC50 for Gal4-tagged human PPAR-gamma expressed in HEK cells to EC50 for Gal4-tagged human PPAR-alpha expressed in HEK cells; format: cell-based
[11] = target: T1, Peroxisome proliferator-activated receptor alpha (Homo sapiens) (UniProt Q07869); assay: Intrinsic activity at PPAR-alpha (unknown origin) relative to fenofibric acid
T1 sequence (whole entry): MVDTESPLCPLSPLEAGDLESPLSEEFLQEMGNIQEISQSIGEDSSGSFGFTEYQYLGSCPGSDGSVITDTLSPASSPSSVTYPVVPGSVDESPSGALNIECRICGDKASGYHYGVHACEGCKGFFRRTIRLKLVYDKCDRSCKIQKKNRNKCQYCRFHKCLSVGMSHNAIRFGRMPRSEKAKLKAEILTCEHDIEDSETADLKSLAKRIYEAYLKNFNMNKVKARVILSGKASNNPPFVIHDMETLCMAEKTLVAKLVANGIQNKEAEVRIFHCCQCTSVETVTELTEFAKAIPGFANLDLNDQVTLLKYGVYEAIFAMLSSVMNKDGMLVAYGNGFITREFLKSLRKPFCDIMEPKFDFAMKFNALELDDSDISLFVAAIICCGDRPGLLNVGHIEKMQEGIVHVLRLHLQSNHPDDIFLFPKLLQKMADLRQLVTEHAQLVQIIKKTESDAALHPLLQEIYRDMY

Mus musculus [12] = assay: Increase in serum ApoA1 level in transgenic mouse expressing human ApoA1 compound administered qd through oral gavage measured after 10 days; format: functional, organism-based
[13] = Half life in dog at 1 mg/kg, iv; format: ADME, organism-based, Canis lupus familiaris; settings: in vivo
[14] = target: Peroxisome proliferator-activated receptor delta (Homo sapiens) (UniProt Q03181); assay: Agonist activity against human PPAR-delta by transactivation assay relative to standard compound
Cytochrome P450 2C9 = Cytochrome P450 2C9 (Homo sapiens, UniProt P11712); assay: Inhibition of CYP2C9 in human TC5 cells; format: ADME, cell-based
[15] = AUC (0 to 8 hrs) in dog at 2 mg/kg, po; format: ADME, organism-based, Canis lupus familiaris; set-up: dose 2 mg/kg, time < 8 hr, route oral; settings: in vivo
[16] = AUC (0 to 8 hrs) in dog at 1 mg/kg, iv; format: ADME, organism-based, Canis lupus familiaris; set-up: dose 1 mg/kg, time < 8 hr, route intravenous; settings: in vivo
Mus musculus [17] = assay: Increase in HDL cholesterol level in transgenic mouse expressing human ApoA1 at 3 mg/kg administered qd through oral gavage measured after 10 days relative to vehicle control; format: functional
[18] = Half life in Sprague-Dawley rat at 4 mg/kg, iv; format: ADME, organism-based; settings: in vivo
Mus musculus [19] = assay: Increase in HDL cholesterol level in transgenic mouse expressing human ApoA1 at 10 mg/kg administered qd through oral gavage measured after 10 days relative to vehicle control; format: functional
[20] = Aqueous solubility of the compound at pH 7.2; format: physicochemical; settings: buffer
Syrian golden hamster [21] = assay: Decrease in liver triglyceride level in high fat-diet fed syrian golden hamster model of dyslipidemia at 3 mg/kg administered qd through oral gavage measured after 21 days by FPLC analysis relative to control; format: functional, Mesocricetus auratus; set-up: scale not given: the % may be the effect or the level left
[22] = Plasma clearance in dog at 1 mg/kg, iv; format: ADME, organism-based, Canis lupus familiaris
Mus musculus [23] = assay: Increase in HDL cholesterol level in transgenic mouse expressing human ApoA1 at 50 mg/kg administered qd through oral gavage measured after 10 days relative to vehicle control; format: functional
[24] = Protein binding in dog plasma; format: ADME, cell-free, Canis lupus familiaris; settings: read-out: PPB (converted)
[25] = Cmax in Balb/c mouse at 10 mg/kg, po; format: ADME, organism-based; set-up: dose 10 mg/kg, route oral; settings: in vivo
[26] = Tmax in dog at 2 mg/kg, po; format: ADME, organism-based, Canis lupus familiaris; settings: in vivo
[27] = target: Glucocorticoid receptor (Homo sapiens) (UniProt P04150); assay: Agonist activity at human GR by transactivation assay relative to standard compound
Cytochrome P450 2B6 = Cytochrome P450 2B6 (Homo sapiens, UniProt P20813); assay: Inhibition of CYP2B6 (unknown origin); format: ADME
Salmonella typhimurium = assay: Genotoxicity in Salmonella typhimurium TA100 up to 5000 ug by Ames test; format: toxicity, organism-based; settings: salmonella enterica subsp. enterica serovar typhimurium
Mus musculus [28] = assay: Decrease in triglyceride level in transgenic mouse expressing human ApoA1 at 3 mg/kg administered qd through oral gavage measured after 10 days relative to vehicle control; format: functional; set-up: scale not given: the % may be the effect or the level left
Syrian golden hamster [29] = assay: Decrease in liver cholesterol level in high fat-diet fed syrian golden hamster model of dyslipidemia at 1 mg/kg administered qd through oral gavage measured after 21 days by FPLC analysis relative to control; format: functional, Mesocricetus auratus; set-up: scale not given: the % may be the effect or the level left
Cytochrome P450 2D6 = Cytochrome P450 2D6 (Homo sapiens, UniProt P10635); assay: Inhibition of CYP2D6 (unknown origin); format: ADME
[30] = target: Retinoid X receptor (Homo sapiens) (UniProt P28702+P48443+P19793); assay: Agonist activity at human RXR by transactivation assay relative to standard compound; format: protein assay
[31] = Oral bioavailability in dog at 2 mg/kg; format: ADME, organism-based, Canis lupus familiaris; settings: in vivo
[32] = Plasma clearance in Balb/c mouse at 5 mg/kg, iv; format: ADME, organism-based
[33] = Tmax in cynomolgus monkey at 2 mg/kg, po; format: ADME, organism-based, Macaca fascicularis; settings: in vivo
[34] = Cmax in cynomolgus monkey at 2 mg/kg, po; format: ADME, organism-based, Macaca fascicularis; set-up: dose 2 mg/kg, route oral; settings: in vivo
[35] = Tmax in Balb/c mouse at 10 mg/kg, po; format: ADME, organism-based; settings: in vivo
Mus musculus [36] = assay: Decrease in triglyceride level in transgenic mouse expressing human ApoA1 at 10 mg/kg administered qd through oral gavage measured after 10 days relative to vehicle control; format: functional; set-up: scale not given: the % may be the effect or the level left
Cytochrome P450 2C19 = Cytochrome P450 2C19 (Homo sapiens, UniProt P33261); assay: Inhibition of CYP2C19 (unknown origin); format: ADME
[37] = Half life in Balb/c mouse at 5 mg/kg, iv; format: ADME, organism-based; settings: in vivo
[38] = Oral bioavailability in Sprague-Dawley rat at 8 mg/kg; format: ADME, organism-based; settings: in vivo

Sequence of Peroxisome proliferator-activated receptor delta (Homo sapiens) (Q03181 whole entry): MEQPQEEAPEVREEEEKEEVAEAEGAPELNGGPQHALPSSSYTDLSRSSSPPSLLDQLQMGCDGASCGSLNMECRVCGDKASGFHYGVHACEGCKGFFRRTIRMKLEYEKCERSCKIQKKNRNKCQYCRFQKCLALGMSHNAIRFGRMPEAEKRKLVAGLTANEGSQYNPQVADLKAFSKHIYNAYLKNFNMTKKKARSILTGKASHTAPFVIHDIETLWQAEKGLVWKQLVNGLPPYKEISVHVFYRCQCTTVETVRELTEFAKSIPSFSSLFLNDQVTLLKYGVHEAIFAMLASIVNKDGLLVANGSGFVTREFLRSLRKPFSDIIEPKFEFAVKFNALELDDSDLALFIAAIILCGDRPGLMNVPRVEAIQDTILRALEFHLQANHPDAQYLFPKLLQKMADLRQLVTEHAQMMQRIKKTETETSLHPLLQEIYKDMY
Sequence of Cytochrome P450 2C9 (P11712 whole entry): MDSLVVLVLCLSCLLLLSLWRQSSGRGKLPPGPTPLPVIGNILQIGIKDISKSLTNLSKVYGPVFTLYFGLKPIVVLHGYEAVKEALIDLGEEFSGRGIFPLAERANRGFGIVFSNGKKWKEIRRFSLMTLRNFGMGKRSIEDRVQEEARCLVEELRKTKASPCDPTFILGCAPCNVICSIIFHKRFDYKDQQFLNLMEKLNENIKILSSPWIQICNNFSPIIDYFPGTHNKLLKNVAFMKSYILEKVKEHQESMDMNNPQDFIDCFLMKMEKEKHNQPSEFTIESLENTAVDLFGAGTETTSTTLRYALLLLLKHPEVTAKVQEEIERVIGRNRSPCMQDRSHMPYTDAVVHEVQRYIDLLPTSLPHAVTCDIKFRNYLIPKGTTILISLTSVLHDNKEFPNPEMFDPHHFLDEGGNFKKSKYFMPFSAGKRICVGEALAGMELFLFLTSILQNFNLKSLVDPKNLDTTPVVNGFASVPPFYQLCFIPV
Sequence of Cytochrome P450 2C19 (P33261 whole entry): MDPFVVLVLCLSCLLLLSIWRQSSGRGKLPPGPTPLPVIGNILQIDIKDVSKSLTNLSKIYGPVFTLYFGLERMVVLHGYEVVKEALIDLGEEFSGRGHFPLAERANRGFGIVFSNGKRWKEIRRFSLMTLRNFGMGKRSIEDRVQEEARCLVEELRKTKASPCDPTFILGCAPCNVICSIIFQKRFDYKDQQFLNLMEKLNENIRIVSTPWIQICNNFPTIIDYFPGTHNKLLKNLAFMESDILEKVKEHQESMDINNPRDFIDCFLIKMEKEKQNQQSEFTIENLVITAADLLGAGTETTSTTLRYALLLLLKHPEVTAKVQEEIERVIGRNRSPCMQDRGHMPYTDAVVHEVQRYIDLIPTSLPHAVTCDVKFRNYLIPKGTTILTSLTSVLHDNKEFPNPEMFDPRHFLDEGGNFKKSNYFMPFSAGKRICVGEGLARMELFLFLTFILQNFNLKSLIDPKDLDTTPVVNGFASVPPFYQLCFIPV
Sequence of Retinoid X receptor (Homo sapiens) (P19793 whole entry, looked up): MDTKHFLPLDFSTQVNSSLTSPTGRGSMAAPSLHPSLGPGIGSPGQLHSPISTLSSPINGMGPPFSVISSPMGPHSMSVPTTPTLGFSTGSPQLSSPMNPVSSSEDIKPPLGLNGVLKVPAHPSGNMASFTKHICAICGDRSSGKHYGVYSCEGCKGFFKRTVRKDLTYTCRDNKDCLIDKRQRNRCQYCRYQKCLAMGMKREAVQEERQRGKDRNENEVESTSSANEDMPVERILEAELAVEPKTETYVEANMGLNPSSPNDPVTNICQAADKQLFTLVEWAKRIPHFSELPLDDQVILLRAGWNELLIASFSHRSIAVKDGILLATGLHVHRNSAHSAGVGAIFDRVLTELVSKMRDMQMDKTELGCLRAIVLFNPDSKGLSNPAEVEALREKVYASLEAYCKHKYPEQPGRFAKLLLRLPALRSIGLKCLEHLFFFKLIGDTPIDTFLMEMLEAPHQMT
Sequence of Retinoid X receptor (Homo sapiens) (P28702 whole entry, looked up): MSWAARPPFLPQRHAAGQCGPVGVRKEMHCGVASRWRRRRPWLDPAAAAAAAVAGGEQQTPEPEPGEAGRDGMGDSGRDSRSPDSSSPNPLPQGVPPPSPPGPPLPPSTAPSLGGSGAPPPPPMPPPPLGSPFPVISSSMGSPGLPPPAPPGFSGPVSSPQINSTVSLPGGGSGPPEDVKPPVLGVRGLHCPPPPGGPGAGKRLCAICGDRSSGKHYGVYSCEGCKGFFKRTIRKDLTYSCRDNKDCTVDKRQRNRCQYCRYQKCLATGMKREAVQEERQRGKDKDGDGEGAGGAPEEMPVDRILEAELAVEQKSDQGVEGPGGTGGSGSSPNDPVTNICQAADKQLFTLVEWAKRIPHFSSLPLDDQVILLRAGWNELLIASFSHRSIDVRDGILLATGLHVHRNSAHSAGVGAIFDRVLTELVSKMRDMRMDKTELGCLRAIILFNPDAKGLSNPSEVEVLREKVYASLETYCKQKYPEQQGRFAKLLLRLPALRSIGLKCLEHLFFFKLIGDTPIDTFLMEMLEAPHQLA
Sequence of Retinoid X receptor (Homo sapiens) (P48443 whole entry, looked up): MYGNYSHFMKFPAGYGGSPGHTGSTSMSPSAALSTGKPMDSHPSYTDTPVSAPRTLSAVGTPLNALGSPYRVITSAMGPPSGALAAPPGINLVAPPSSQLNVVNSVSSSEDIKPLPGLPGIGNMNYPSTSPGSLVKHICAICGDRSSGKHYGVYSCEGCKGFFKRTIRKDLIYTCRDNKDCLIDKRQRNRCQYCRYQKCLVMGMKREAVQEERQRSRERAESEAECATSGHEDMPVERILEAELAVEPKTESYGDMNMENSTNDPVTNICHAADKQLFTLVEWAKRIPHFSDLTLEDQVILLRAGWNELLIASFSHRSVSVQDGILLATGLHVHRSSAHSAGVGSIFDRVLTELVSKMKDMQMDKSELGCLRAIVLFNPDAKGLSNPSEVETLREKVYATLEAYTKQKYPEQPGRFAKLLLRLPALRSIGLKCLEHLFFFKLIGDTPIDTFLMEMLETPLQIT
Sequence of Cytochrome P450 1A2 (P05177 whole entry, the tested form may be a part): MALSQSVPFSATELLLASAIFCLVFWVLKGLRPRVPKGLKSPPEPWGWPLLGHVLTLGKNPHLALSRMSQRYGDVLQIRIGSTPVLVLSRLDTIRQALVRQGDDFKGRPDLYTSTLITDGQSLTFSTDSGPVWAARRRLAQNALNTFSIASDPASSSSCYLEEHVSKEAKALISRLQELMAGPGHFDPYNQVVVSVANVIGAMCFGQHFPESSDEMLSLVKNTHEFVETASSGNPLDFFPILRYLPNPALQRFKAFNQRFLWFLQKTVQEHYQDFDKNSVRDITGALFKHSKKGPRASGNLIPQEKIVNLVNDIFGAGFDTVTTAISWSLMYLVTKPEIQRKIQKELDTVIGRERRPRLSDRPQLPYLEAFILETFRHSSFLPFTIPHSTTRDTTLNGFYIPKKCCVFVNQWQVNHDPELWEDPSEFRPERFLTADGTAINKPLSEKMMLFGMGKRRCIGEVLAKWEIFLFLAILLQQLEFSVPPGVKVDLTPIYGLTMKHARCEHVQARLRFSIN
Sequence of Voltage-gated inwardly rectifying potassium channel KCNH2 (Q12809 whole entry): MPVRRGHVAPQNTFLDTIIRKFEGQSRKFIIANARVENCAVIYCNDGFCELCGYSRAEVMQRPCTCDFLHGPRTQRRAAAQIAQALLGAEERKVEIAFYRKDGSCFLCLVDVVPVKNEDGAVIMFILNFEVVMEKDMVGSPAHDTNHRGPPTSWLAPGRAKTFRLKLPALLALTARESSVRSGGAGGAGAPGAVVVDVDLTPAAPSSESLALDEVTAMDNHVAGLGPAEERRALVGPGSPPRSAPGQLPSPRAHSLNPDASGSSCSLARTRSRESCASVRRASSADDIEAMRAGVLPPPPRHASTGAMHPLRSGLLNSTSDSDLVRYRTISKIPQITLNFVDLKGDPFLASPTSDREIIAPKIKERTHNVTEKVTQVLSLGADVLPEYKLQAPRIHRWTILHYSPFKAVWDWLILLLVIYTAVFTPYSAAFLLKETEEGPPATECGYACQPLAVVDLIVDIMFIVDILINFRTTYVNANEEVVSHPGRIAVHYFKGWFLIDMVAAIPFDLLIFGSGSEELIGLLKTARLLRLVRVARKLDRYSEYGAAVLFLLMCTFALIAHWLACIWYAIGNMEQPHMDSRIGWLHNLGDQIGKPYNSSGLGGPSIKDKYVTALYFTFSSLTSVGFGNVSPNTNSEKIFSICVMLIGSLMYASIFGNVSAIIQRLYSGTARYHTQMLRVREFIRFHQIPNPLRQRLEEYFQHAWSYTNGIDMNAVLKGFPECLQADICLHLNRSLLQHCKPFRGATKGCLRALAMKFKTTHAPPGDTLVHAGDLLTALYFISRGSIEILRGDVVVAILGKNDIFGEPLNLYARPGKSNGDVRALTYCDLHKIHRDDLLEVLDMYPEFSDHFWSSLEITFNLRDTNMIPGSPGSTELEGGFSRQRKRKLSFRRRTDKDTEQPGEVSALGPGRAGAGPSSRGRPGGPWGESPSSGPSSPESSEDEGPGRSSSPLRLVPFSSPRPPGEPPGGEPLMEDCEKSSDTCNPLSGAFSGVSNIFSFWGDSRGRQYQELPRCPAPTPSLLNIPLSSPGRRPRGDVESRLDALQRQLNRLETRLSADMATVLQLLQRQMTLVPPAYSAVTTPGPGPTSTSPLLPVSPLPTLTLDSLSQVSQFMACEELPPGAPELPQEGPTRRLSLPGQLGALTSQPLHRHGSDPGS

Molecule `COC(=O)N(CC(=O)O)Cc1cc(OCc2nc(-c3ccc(Cl)cc3)oc2C)ccc1F` has an Activity (Syrian golden hamster [1]) of 67.5%, an Activity (Mus musculus [2]) of 58.1% and an IC50 [3] greater than 80 µM. For the same molecule, the Activity (Syrian golden hamster [4]) was 24%, the fraction unbound [5] was 0.003 and the Cmax [6] was 1500 nM. For the same molecule, the Activity (Syrian golden hamster [7]) was “Dose-dependent effect”, the fraction unbound [8] was 0.004 and the Activity (Mus musculus [9]) was 96%. It also gave an EC50 [10] of 0.178 µM, an IC50 (Cytochrome P450 1A2) greater than 40 µM and a Ratio EC50 (HEK293) of 1130. For the same molecule, the Intrinsic activity [11] was greater than 50%, the Activity (Mus musculus [12]) was “Dose-dependent effect” and the half-life [13] was 5.5 h. The Efficacy [14] was less than 15%, the IC50 (Cytochrome P450 2C9) was greater than 150 µM and the AUC(0-t) at 8 h [15] was 4 µM·h. For the same molecule, the AUC(0-t) at 8 h [16] was 3.5 µM·h, the Activity (Mus musculus [17]) was 16% and the half-life [18] was 3.3 h. The Activity (Mus musculus [19]) was 74%, the solubility [20] was 367 µg/mL (≈ 793 µM) and the Activity (Syrian golden hamster [21]) was 39.8%. It also gave a clearance [22] of 10.7 mL/min/kg, an Activity (Mus musculus [23]) of 109% and a fraction unbound [24] of 0.005. For the same molecule, the Cmax [25] was 22700 nM, the Tmax [26] was 0.8 h and the Efficacy [27] was less than 15%. The IC50 (Cytochrome P450 2B6) was greater than 40 µM, the Activity (Salmonella typhimurium) was “Non-toxic” and the Activity (Mus musculus [28]) was 14.2%. For the same molecule, the Activity (Syrian golden hamster [29]) was 13%, the IC50 (Cytochrome P450 2D6) was greater than 40 µM and the Efficacy [30] was less than 15%. For the same molecule, the bioavailability [31] was 59%, the clearance [32] was 13.8 mL/min/kg and the Tmax [33] was 0.9 h. For the same molecule, the Cmax [34] was 1400 nM, the Tmax [35] was 0.25 h and the Activity (Mus musculus [36]) was 23.5%. For the same molecule, the IC50 (Cytochrome P450 2C19) was greater than 40 µM, the half-life [37] was 1.8 h and the bioavailability [38] was 100%.
